The values below are quoted from earlier work in US20020193323A1, “Compositions and methods for promoting a healthy cardiovascular system and enhancing blood flow” (priority 2000, published 2002).

For data set [1] the following is noted: in vivo.
The subject of the next data set is glutathione system. The following applies: selenium supplementation, through activation of the glutathione system.

Regarding `CC1=C(/C=C/C(C)=C/C=C/C(C)=C/C=C/C=C(C)/C=C/C=C(C)/C=C/C2=C(C)CCCC2(C)C)C(C)(C)CCC1` [Beta-carotene], the “reduce risk of major coronary events” value in data set [1] is on record as 51%.
With `[Se]` [selenium], the “reduced lipid peroxidation levels” value in the data set on glutathione system is reported as 50%.
